1 compound from PMC12051620, “Molecular basis underlying the specificity of an antagonist AA92593 for mammalian melanopsins” (The Journal of Biological Chemistry, 2025) can be followed below.

For the assay, the target named is lanceolatum melanopsin F189^ECL2W/I207^5.42F mutant (Branchiostoma lanceolatum, UniProt A0A2Z4C1D4, F188W/I204F). The assay can be described thus: GsX GloSensor assay with Gsα/q11. The assay is classed as cell-based. From the text:
We assessed the effect of the antagonist on the mutants using the GsX GloSensor assay with Gsα/q11. […] Furthermore, the double substitution F189^ECL2W/I207^5.42F further increased the susceptibility of the lanceolatum melanopsin to the antagonist by ∼88% (Fig. 7, G, H, and I). The AA92593-induced inhibition of the double mutant F189^ECL2W/I207^5.42F was as efficient as that of human melanopsin (Fig. 7I). […] Taken together, the introduction of Trp-189^ECL2 and Phe-207^5.42 rendered lanceolatum melanopsin highly sensitive to the antagonist (Fig. 7, G, H, and I).
For GloSensor assay, opsins, GloSensor assay sensor (coded by pGlo-22F), and NanoBiT-tagged G proteins were transiently expressed in COS-1 cells (kindly provided from Dr David Farrens, Oregon Health and Science University) using PEI as described previously ([24], [52]). For the GsX GloSensor assay ([12], [13]), each well of a 96-well assay plate (Corning) was transfected with 50 ng opsin plasmid, 16.7 ng G protein plasmid, 50 ng pGlo-22F plasmid (Promega), and 500 ng PEI in 25 μl Opti-mem and 75 μl Dulbecco's modified Eagle's medium (D-MEM). For NanoBiT G protein dissociation assay, each well of a 96-well assay plate was transfected with 50 ng opsin plasmid, 5 ng Lg-BiT inserted Gqα (Gqα-LgBiT) plasmid, 25 ng Gβ1 plasmid, 25 ng Sm-BiT fused Gγ2 plasmid, 5 ng RIC8A plasmid, and 500 ng PEI in 25 μl Opti-mem and 75 μl D-MEM. For GFP-fluorescence microscopy, a 35-mm cell culture dish (IWAKI) was transfected with 2 μg melanopsin-GFP plasmid and 8 μg PEI in 400 μl Opti-mem and 1.2 ml D-MEM. […]
The transfected COS-1 cells were incubated at 37 °C, 5% CO2 for 2 days, and the medium was aspirated and exchanged with 50 μl of HBSS (145 mM NaCl, 10 mM D-glucose, 5 mM KCl, 1 mM MgCl2, 1.7 mM CaCl2, 1.5 mM NaHCO3, 10 mM Hepes, pH 7.4), containing 33.3, 20, 10, 2, 0.2, 0.02, 0.002, or 0 μM AA92593, 0.5% dimetyl sulfoxide (DMSO), and 4% (vol/vol) GloSensor cAMP reagent stock solution. […] Then, the cells were incubated at room temperature for 1 h, and luminescence changes were monitored. After incubation of the cells with AA92593, luminescence measurement was interrupted, the plate was ejected, and the cells were added with 50 μl of HBSS containing 0.2 μM 9-cis-retinal. […] Luminescence was measured using GM-2000 or GM-3510 microplate reader (Promega). Luminescence level of each well was measured every 30 s with integration time of 0.6 to 0.9 s. To illuminate opsins, luminescence measurement was interrupted, the plate was ejected, and the plate was illuminated by white light with CN-160 LED video light (light intensity, ∼9 mW/cm^2) (NEEWER). […] After illumination, luminescence measurement was resumed. The measured luminescence levels were normalized to the level at the starting point (time = 0 min). […]

Setting [1] is: relative peak cAMP response vs no AA92593.

lanceolatum melanopsin F189^ECL2W/I207^5.42F mutant, sequence (A0A2Z4C1D4 entry or part of it F188W/I204F): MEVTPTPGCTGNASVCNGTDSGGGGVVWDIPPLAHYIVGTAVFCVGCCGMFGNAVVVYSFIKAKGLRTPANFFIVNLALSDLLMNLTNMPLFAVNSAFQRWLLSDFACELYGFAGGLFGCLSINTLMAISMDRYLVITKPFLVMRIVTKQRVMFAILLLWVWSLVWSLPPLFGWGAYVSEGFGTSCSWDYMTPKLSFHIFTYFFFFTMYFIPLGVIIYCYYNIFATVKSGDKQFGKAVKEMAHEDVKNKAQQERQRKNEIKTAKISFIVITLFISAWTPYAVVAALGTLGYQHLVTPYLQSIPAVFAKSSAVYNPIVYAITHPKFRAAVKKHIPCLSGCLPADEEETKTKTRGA

As to `COc1ccc(S(=O)(=O)N2CCCCC2)cc1C` [AA92593], the “Hill fitting parameter rate of dose-response curve” value was −0.84 ± 0.75 and the IC50 was 1.4 ± 0.88 µM. Under setting [1], the “Hill fitting parameter max of dose-response curve” value is recorded as 107.65 ± 12.6 and the “Hill fitting parameter min of dose-response curve” value is given as −5.22 ± 4.53.

One may read the IC50 as the concentration needed to halve the response being measured. Low readings indicate inhibition by little substance, high ones a need for much substance.
